# Test results published in US20030109432A1, “Anticancer polypeptide-metal complexes and compositions, methods of making, and methods of using same” (priority 2001, published 2003).
# Test system: tumor tissues (breast)
# Experiment: Immunohistopathology of tumor tissue after treatment
# Format: in vivo
# Conditions: 48 hours post treatment, FIG. 7
# Text: After treatment with either cisplatin or the platinum peptide complex, tumor tissues (breast) were dissected and embedded in […]. The tumor tissue was fixed in […] and stained for cellular target expression.
row,Compound,histopathological changes
1,"[NH2][Pt]([NH2])([Cl])[Cl] [CDDP, cisplatin]",marked necrosis and apoptosis
2,"cis-1,2-DACH—Pt (II)-poly(glutamic/aspartic acid) [PDDP]",marked necrosis and apoptosis
